Test system: COPD induced mice
Test: Anti-COPD effect in cigarette smoke + LPS COPD mouse model
Format: in vivo, C57BL/6N mouse
Details: 10 mg/kg p.o.
Protocol: In order to determine the anti-COPD effect of inventive compounds in COPD animal model, following test was performed by using COPD induced mice as disclosed in the literature (Bhaysar, T. et al., J. Chronic Obstr. […]. Dis., 2008, 3, 477-481). Specific pathogen-free male C57BL/6N mouse (about 22-24 g), aged 6 weeks, which were routinely screened serologically for relevant respiratory pathogens, were purchased from Koatech Co. (koatech.co.kr, Seoul, Korea) and bred allowing to access freely to feed (antibiotic free, Samyang Oil & Feed Corp., Korea) and water in breeding room controlling the temperature of 22±2° C., and humidity of 55±15% at the light-dark cycle for 12 hours and acclimated with the experimental environment for 1 week. 2 kinds of test samples, […] ingredient: Roflumilast, 10 mg/kg) were dissolved in 0.5% sodium carboxymethyl cellulose ([…], Sigma-Aldrich, USA) and used as test samples. KS534, and Rolflumilast (ROF 11-492, HETERO, India) were orally administrated to the mice, 1 hour before prior the intratracheal instillation (i.t.). 3R4F Kentuchy Reference Cigarettes ([…], USA) was used as a standard cigarette for generating a cigarette smoke. The cigarette containing 9.4 mg of tar, 11 mg of TPM (total particle matter) and 12 mg of carbon monooxide per piece, was used after harmonizing with the temperature of 22±1° C. and humidity of 60±2% after opening for 48-72 hrs. The exposure of cigarette smoke was performed by using a cigarette smoke generator (DBL Co. Ltd., dhbiolink.com, Korea). The mice were divided into five groups: normal (NC), COPD (cigarette smoke with LPS intranasal instillation), Rof (10 mg/kg of roflumilast, p.o.+cigarette smoke with LPS intranasal instillation), and KS534-15 and 30 (15 mg/kg and 30 mg/kg of KS534, p.o.+cigarette smoke with LPS instillation, respectively). Exposure of cigarette smoke (one puff/min, 35 ml puff volume over 2 s, every 60 s, 8 cigarettes per day) was conducted using a cigarette smoke generator. The mice received 1 h of cigarette smoke exposure in an exposure chamber (50 cm×30 cm×30 cm) for 3 days. Roflumilast and piscroside C were administered to mice by oral lavage 1 h before cigarette smoke exposure for 3 days. LPS was intranasally instilled ([…] dissolved in 50 μL distilled water) under anesthesia 1 h after the final exposure to cigarette smoke. After the end of experiment, the blood, BALF, and pneumonocyte of each rat were isolated and collected to test. After finishing the experiment, rats were anaesthetized with Zoleti150 (3VX9, Virbac, France, p.o) and the blood was delivered through caudal veins. In order to isolate BALF from lung, the bronchus of right lung was ligated with suture and then performed to tracheostomy. IV-use catheter (16 GA, 3S-Cath, Dukwoo, Korea) was put into the bronchus, and both of bronchus and catheter (16 GA, 3S-Cath, Dukwoo, Korea) were fixed with suture. The injector containing 1 ml of DPBS 0.7 (Dubecco's phosphate-buffered saline, Invitrogen, USA) was connected thereto and DPBS was forced to circulate three times to isolate BALF. The right lung ligated with suture was isolated, fixed with 10% neutral formalin solution, and the remaining lung tissue was reserved in refrigerator at -70° C. The isolated BALF was centrifuged for 15 mins at 1500 rpm to prepare cell pellet and the supernatant was reserved in refrigerator at -70° C. for cytokine analysis. The cell pellet was suspended in DPBS, and the cell was attached to a slide glass using by cytospin centrifuge (CS03270047, Hanil, Korea). Diff-Quik staining (ZS1003, Sysmex, Japan) was performed and the cell was observed by optical microscopy (DM1000, Leica, German) to count the number of immunocyte in each test sample. The level of ROS in BALF isolated from the mice was determined by DCF-DA (dihydrodo chloro fluoresce indiacetate, 35854, Sigma-Aldrich, USA) and the final concentration of DCF-DA was adjusted to 20 μm in 200 μL to incubate 30 mins. […]

O=C(Nc1c(Cl)cncc1Cl)c1ccc(OC(F)F)c(OCC2CC2)c1 [Roflumilast, reference compound]
level of proteins in BALF compared with COPD induced group (COPD mice): significant reduction | reduced level of ROS in BALF comparing with COPD induced group (COPD mice): about 22.2% | reduced level of neutrophils in BALF comparing with COPD induced group (COPD mice): about 21.1% | invasion of the inflamed cells in lung tissue (histology) (COPD mice (FIG. 14)): significantly reduced | level of IL-6 in BALF compared with COPD induced group (COPD mice, ELISA): significant reduction | level of TNF-alpha in BALF compared with COPD induced group (COPD mice, ELISA): significant reduction

— patent US20170217982A1, “Compound isolated from Pseudolysimachion rotundum var. subintegrum, the composition comprising the same for treating allergic disease, inflammatory disease, asthma or chronic obstructive pulmonary disease and the use thereof” (YUNGJIN PHARMACEUTICAL CO., LTD, priority 2014, published 2017)
